Like-named read-outs stand apart in the source and are kept apart here.
Experiments:
[1] = test system: HCV replicon cells Huh 9B; assay: HCV replicon assay (luciferase readout); type: cell-based
Outline: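 Compounds, made up at twice final strength (final DMSO 1%), were added to subgenomic replicon cells one day after plating. Incubation then ran 72 h at 37 °C, 5% CO2, without G418. Replication was quantified as firefly luciferase luminescence in lysed cells, with cytotoxicity assessed on a duplicate clear plate.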

[2] = test system: HCV replicon cells Huh 9B; type: cell-based
[3] = Hepatitis C virus, 72 h, concentration reducing replicon level (luciferase activity) by 50% vs untreated cell control, 72 h incubation
[4] = concentration reducing total cell area by 50% relative to DMSO controls, methylene blue, absorbance 620 nm, 72 h incubation

SMILES: Cc1ccc(C(=O)Nc2ccc(N3CCOCC3)cc2)cc1-c1ccc(NC(=O)c2ccc(CN(C)C)cc2)cc1 [Example 117, 4′-(4-Dimethylaminomethyl-benzoylamino)-6-methyl-biphenyl-3-carboxylic acid (4-morpholin-4-yl-phenyl)-amide]
- IC50 [1, 3]: 1000 to 5000 nM
- TD50 [2, 4]: * (* < 50 μM)

SMILES: Cc1ccc(C(=O)Nc2ccc(N3CCOCC3)cc2)cc1-c1ccc(NC(=O)c2ccc(CN3CCOCC3)cc2)cc1 [Example 118, 6-Methyl-4′-(4-morpholin-4-ylmethyl-benzoylamino)-biphenyl-3-carboxylic acid (4-morpholin-4-yl-phenyl)-amide]
- IC50 [1, 3]: > 5000 nM
- TD50 [2, 4]: * (* < 50 μM)

SMILES: Cc1ccc(C(=O)Nc2ccc(N3CCOCC3)cc2)cc1-c1ccc(NC(=O)c2ccc(N3CCOCC3)cc2)cc1 [Example 119, 6-Methyl-4′-(4-morpholin-4-yl-benzoylamino)-biphenyl-3-carboxylic acid (4-morpholin-4-yl-phenyl)-amide]
- IC50 [1, 3]: 1000 to 5000 nM
- TD50 [2, 4]: ** (** > 50 μM)

SMILES: O=C(Nc1ccc(CN2CCS(=O)(=O)CC2)cc1)c1ccc(-c2cccc(C(=O)Nc3ccc(N4CCOCC4)cc3)c2)cc1 [Example 120, Biphenyl-3,4′-dicarboxylic acid 4′-{[4-(1,1-dioxo-1lambda*6 *-thiomorpholin-4-ylmethyl)-phenyl]-amide} 3-[(4-morpholin-4-yl-phenyl)-amide]]
- IC50 [1]: 1000 to 5000 nM
- TD50 [2]: ** (key: * < 50 μM; ** > 50 μM)

SMILES: Cc1ccc(C(=O)NC2CC2)cc1-c1ccc(C(=O)Nc2ccc(CN3CCS(=O)(=O)CC3)cc2)cc1 [Example 121, 6-Methyl-biphenyl-3,4′-dicarboxylic acid 3-cyclopropylamide 4′-{[4-(1,1-dioxo-1lambda*6*-thiomorpholin-4-ylmethyl)-phenyl]-amide}]
- IC50 [1]: 1000 to 5000 nM
- TD50 [2]: * (key: * < 50 μM; ** > 50 μM)

SMILES: Cc1ccc(C(=O)NCCC(C)C)cc1-c1ccc(C(=O)Nc2ccc(CN3CCS(=O)(=O)CC3)cc2)cc1 [Example 122, 6-Methyl-biphenyl-3,4′-dicarboxylic acid 4′-{[4-(1,1-dioxo-1lambda*6*-thiomorpholin-4-ylmethyl)-phenyl]-amide} 3-[(3-methyl-butyl)-amide]]
- IC50 [1]: < 1000 nM
- TD50 [2]: * (key: * < 50 μM; ** > 50 μM)

SMILES: Cc1ccc(C(=O)NCc2cccc(F)c2)cc1-c1ccc(C(=O)Nc2ccc(CN3CCS(=O)(=O)CC3)cc2)cc1 [Example 123, 6-Methyl-biphenyl-3,4′-dicarboxylic acid 4′-{[4-(1,1-dioxo-1lambda*6*-thiomorpholin-4-ylmethyl)-phenyl]-amide} 3-(3-fluoro-benzylamide)]
- IC50 [1]: < 1000 nM
- TD50 [2]: * (key: * < 50 μM; ** > 50 μM)

SMILES: Cc1ccc(C(=O)NCC2CCCO2)cc1-c1ccc(C(=O)Nc2ccc(CN3CCS(=O)(=O)CC3)cc2)cc1 (stereo not drawn) [Example 124, 6-Methyl-biphenyl-3,4′-dicarboxylic acid 4′-{[4-(1,1-dioxo-1lambda*6*-thiomorpholin-4-ylmethyl)-phenyl]-amide} 3-[(tetrahydro-furan-2-ylmethyl)-amide]]
- IC50 [1]: 1000 to 5000 nM
- TD50 [2]: * (key: * < 50 μM; ** > 50 μM)

SMILES: Cc1ccc(C(=O)NCCN2CCCCC2)cc1-c1ccc(C(=O)Nc2ccc(CN3CCS(=O)(=O)CC3)cc2)cc1 [Example 125, 6-Methyl-biphenyl-3,4′-dicarboxylic acid 4′-{[4-(1,1-dioxo-1lambda*6*-thiomorpholin-4-ylmethyl)-phenyl]-amide} 3-[(2-piperidin-1-yl-ethyl)-amide]]
- IC50 [1]: 1000 to 5000 nM
- TD50 [2]: * (key: * < 50 μM; ** > 50 μM)

SMILES: COCCNC(=O)c1ccc(C)c(-c2ccc(C(=O)Nc3ccc(CN4CCS(=O)(=O)CC4)cc3)cc2)c1 [Example 126, 6-Methyl-biphenyl-3,4′-dicarboxylic acid 4′-{[4-(1,1-dioxo-1lambda*6*-thiomorpholin-4-ylmethyl)-phenyl]-amide} 3-[(2-methoxy-ethyl)-amide]]
- IC50 [1]: 1000 to 5000 nM
- TD50 [2]: * (key: * < 50 μM; ** > 50 μM)

SMILES: Cc1ccc(C(=O)NCCc2cnc[nH]2)cc1-c1ccc(C(=O)Nc2ccc(CN3CCS(=O)(=O)CC3)cc2)cc1 [Example 127, 6-Methyl-biphenyl-3,4′-dicarboxylic acid 4′-{[4-(1,1-dioxo-1lambda*6*-thiomorpholin-4-ylmethyl)-phenyl]-amide} 3-{[2-(3H-imidazol-4-yl) -ethyl]-amide}]
- IC50 [1]: 1000 to 5000 nM
- TD50 [2]: * (key: * < 50 μM; ** > 50 μM)

SMILES: Cc1ccc(C(=O)N2CCC(N3CCCC3)CC2)cc1-c1ccc(C(=O)Nc2ccc(CN3CCS(=O)(=O)CC3)cc2)cc1 [Example 128, 2′-Methyl-5′-(4-pyrrolidin-1-yl-piperidine-1-carbonyl) -biphenyl-4-carboxylic acid [4-(1,1-dioxo-1lambda*6*-thiomorpholin-4-ylmethyl)-phenyl]-amide]
- IC50 [1, 3]: 1000 to 5000 nM
- TD50 [2, 4]: * (* < 50 μM)

SMILES: Cc1ccc(C(=O)Nc2ccc(CN3CCS(=O)(=O)CC3)cc2)cc1-c1ccc(C(=O)Nc2ccc(CN3CCS(=O)(=O)CC3)cc2)cc1 [Example 129, 6-Methyl-biphenyl-3,4′-dicarboxylic acid bis-{[4-(1,1-dioxo-1lambda*6*-thiomorpholin-4-ylmethyl)-phenyl]-amide}]
- IC50 [1, 3]: < 1000 nM
- TD50 [2, 4]: * (* < 50 μM)

SMILES: Cc1ccc(C(=O)Nc2ccc(N(C)C)cc2)cc1-c1ccc(C(=O)Nc2ccc(CN3CCS(=O)(=O)CC3)cc2)cc1 [Example 130, 6-Methyl-biphenyl-3,4′-dicarboxylic acid 3-[(4-dimethylamino-phenyl)-amide] 4′-{[4-(1,1-dioxo-1lambda*6*-thiomorpholin-4-ylmethyl)-phenyl]-amide}]
- IC50 [1]: < 1000 nM
- TD50 [2]: * (key: * < 50 μM; ** > 50 μM)

SMILES: Cc1cc(NC(=O)C2CC2)ccc1-c1cccc(C(=O)Nc2ccc(CN3CCS(=O)(=O)CC3)cc2)c1 [Example 131, 4′-(Cyclopropanecarbonyl-amino)-2′-methyl-biphenyl-3-carboxylic acid [4-(1,1-dioxo-1lambda*6*-thiomorpholin-4-ylmethyl)-phenyl]-amide]
- IC50 [1, 3]: 1000 to 5000 nM
- TD50 [2, 4]: * (* < 50 μM)

SMILES: Cc1ccc(NC(=O)C2CC2)cc1-c1ccc(C(=O)Nc2ccc(CN3CCS(=O)(=O)CC3)cc2)cc1 [Example 132, 5′-(Cyclopropanecarbonyl-amino)-2′-methyl-biphenyl-4-carboxylic acid [4-(1,1-dioxo-1lambda*6*-thiomorpholin-4-ylmethyl)-phenyl]-amide]
- IC50 [1, 3]: < 1000 nM
- TD50 [2, 4]: * (* < 50 μM)

SMILES: Cc1cc(NC(=O)c2ccco2)ccc1-c1cccc(C(=O)Nc2ccc(CN3CCS(=O)(=O)CC3)cc2)c1 [Example 133, Furan-2-carboxylic acid {3′-[4-(1,1-dioxo-1lambda*6*-thiomorpholin-4-ylmethyl)-phenylcarbamoyl]-2-methyl-biphenyl-4-yl}-amide]
- IC50 [1, 3]: 1000 to 5000 nM
- TD50 [2, 4]: * (* < 50 μM)

SMILES: COc1ccccc1C(=O)Nc1ccc(-c2cccc(C(=O)Nc3ccc(CN4CCS(=O)(=O)CC4)cc3)c2)c(C)c1 [Example 134, 4′-(2-Methoxy-benzoylamino)-2′-methyl-biphenyl-3-carboxylic acid [4-(1,1-dioxo-1lambda*6*-thiomorpholin-4-ylmethyl)-phenyl]-amide]
- IC50 [1, 3]: 1000 to 5000 nM
- TD50 [2, 4]: * (* < 50 μM)

SMILES: Cc1cc(C(=O)Nc2ccc(N3CCOCC3)cc2)ccc1-c1cccc(C(=O)Nc2ccc(CN3CCS(=O)(=O)CC3)cc2)c1 [Example 135, 2′-Methyl-biphenyl-3,4′-dicarboxylic acid 3-{[4-(1,1-dioxo-1 lambda*6*-thiomorpholin-4-ylmethyl)-phenyl]-amide} 4′-[(4-morpholin-4-yl-phenyl)-amide]]
- IC50 [1]: < 1000 nM
- TD50 [2]: * (key: * < 50 μM; ** > 50 μM)

SMILES: Cc1ccc(C(=O)Nc2ccc(N3CCOCC3)cc2)cc1-c1ccc(C(=O)Nc2cccc(CN3CCS(=O)(=O)CC3)c2)cc1 [Example 136, 6-Methyl-biphenyl-3,4′-dicarboxylic acid 4′-{[3-(1,1-dioxo-1lambda*6*-thiomorpholin-4-ylmethyl)-phenyl]-amide} 3-[(4-morpholin-4-yl-phenyl)-amide]]
- IC50 [1]: 1000 to 5000 nM
- TD50 [2]: * (key: * < 50 μM; ** > 50 μM)

SMILES: Cc1ccc(C(=O)NCCCN2CCCC2=O)cc1-c1ccc(C(=O)Nc2ccc(CN3CCS(=O)(=O)CC3)cc2)cc1 [Example 137, 6-Methyl-biphenyl-3,4′-dicarboxylic acid 4′-{[4-(1,1-dioxo-1lambda*6*-thiomorpholin-4-ylmethyl)-phenyl]-amide} 3-{[3-(2-oxo-pyrrolidin-1-yl) -propyl]-amide}]
- IC50 [1]: 1000 to 5000 nM
- TD50 [2]: * (key: * < 50 μM; ** > 50 μM)

SMILES: CCC1(c2ccc(NC(=O)c3ccc(C)c(-c4ccc(C(=O)Nc5ccc(CN6CCS(=O)(=O)CC6)cc5)cc4)c3)cc2)CCC(=O)NC1=O (stereo not drawn) [Example 138, 6-Methyl-biphenyl-3,4′-dicarboxylic acid 4′-{[4-(1,1-dioxo-1lambda*6*-thiomorpholin-4-ylmethyl)-phenyl]-amide} 3-{[4-(3-ethyl-2,6-dioxo-piperidin-3-yl)-phenyl]-amide}]
- IC50 [1]: < 1000 nM
- TD50 [2]: * (key: * < 50 μM; ** > 50 μM)

SMILES: Cc1ccc(C(=O)Nc2ccc(-n3cncn3)cc2)cc1-c1ccc(C(=O)Nc2ccc(CN3CCS(=O)(=O)CC3)cc2)cc1 [Example 139, 6-Methyl-biphenyl-3,4′-dicarboxylic acid 4′-{[4-(1,1-dioxo-1lambda*6*-thiomorpholin-4-ylmethyl)-phenyl]-amide} 3-[(4-[1,2,4]triazol-1-yl-phenyl)-amide]]
- IC50 [1]: < 1000 nM
- TD50 [2]: * (key: * < 50 μM; ** > 50 μM)

SMILES: Cc1ccc(C(=O)Nc2ccc(C(=O)N3CCOCC3)cc2)cc1-c1ccc(C(=O)Nc2ccc(CN3CCS(=O)(=O)CC3)cc2)cc1 [Example 140, 6-Methyl-biphenyl-3,4′-dicarboxylic acid 4′-{[4-(1,1-dioxo-1lambda*6*-thiomorpholin-4-ylmethyl)-phenyl]-amide} 3-{[4-(morpholine-4-carbonyl) -phenyl]-amide}]
- IC50 [1]: 1000 to 5000 nM
- TD50 [2]: * (key: * < 50 μM; ** > 50 μM)

— US8008303B2, “Biphenyl derivatives and their use in treating hepatitis C” (AstraZeneca AB, priority 2005, dated 2011)
